Results from PubChem BioAssay AID1259411 (Chemical Carcinogenesis Research Information System (CCRIS), 2018).
Activity calls are given as the source filed them. The rule behind the calls is not given here.

Tested on: rodent carcinogenicity bioassays, tumor incidence
Experiment: CCRIS carcinogenicity studies
Outline: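 NCI-built, expert-reviewed records of carcinogenicity and related test outcomes (mutagenicity, tumor promotion/inhibition) compiled from published and report sources, historical span 1985-2011, not updated.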

[1] = Species: MOUSE, Strain/Sex: ICR/FEMALE, Route: INTRAPERITONEAL, Dose: 0, 8 NMOL IN 5 µL DMSO ON D 1, 16 NMOL IN 10 µL ON D 8 AND 32 NMOL IN 20 µL ON D 15 OF LIFE (STUDY DURATION: 35 WK)
[2] = Species: MOUSE, Strain/Sex: ICR/MALE, Route: INTRAPERITONEAL, Dose: 0, 8 NMOL IN 5 µL DMSO ON D 1, 16 NMOL IN 10 µL ON D 8 AND 32 NMOL IN 20 µL ON D 15 OF LIFE (STUDY DURATION: 35 WK)

Measured: carcinogen call

C/[N+]([O-])=N/CO[C@@H]1O[C@H](CO)[C@@H](O)[C@H](O)[C@H]1O
active: Species: GUINEA PIG, Route: ORAL, Dose: 0, 5% IN DIET OF CYCAD MEAL, 2-3 5-D PERIODS, Tumor Site: Type of Lesion: LIVER: HEPATOCELLULAR CARCINOMA, BILE DUCT active; positive | Species: GUINEA PIG, Route: ORAL, Tumor Site: Type of Lesion: LIVER, BILE DUCT active; positive | Species: HAMSTER, Route: GAVAGE, Dose: 0.1, 0.15 MG/G BW, SINGLE DOSE, Tumor Site: Type of Lesion: LIVER: HEPATOCELLULAR ADENOMA, BILE DUCT: CARCINOMA, HEMANGIOENDOTHELIAL SARCOMA, LUNG: ADENOMA, INTESTINES, KIDNEY: CAR, Tumor Site: Type of Lesion: LIVER: HEPATOCELLULAR ADENOMA, BILE DUCT: CARCINOMA, HEMANGIOENDOTHELIAL SARCOMA, LUNG: ADENOMA, INTESTINES, KIDNEY: CAR active; positive | Species: HAMSTER, Route: ORAL, Tumor Site: Type of Lesion: LIVER, LUNG, INTESTINES, KIDNEY, Tumor Site: Type of Lesion: LIVER, LUNG, INTESTINES, KIDNEY active; positive | Species: HAMSTER, Route: SUBCUTANEOUS, Tumor Site: Type of Lesion: LIVER active; positive | Species: MONKEY, Strain/Sex: AFRICAN GREEN, Route: ORAL, Dose: 0, 3% (50-75 MG/KG) IN DIET OF CRUDE CYCAD MEAL, 5 D/WK FOR UP TO 11 YR, Tumor Site: Type of Lesion: UNSPECIFIED: NEOPLASM active; positive | Species: MONKEY, Strain/Sex: CYNOMOLGUS, Route: ORAL, Dose: 0, 3% (50-75 MG/KG) IN DIET OF CRUDE CYCAD MEAL, 5 D/WK FOR UP TO 11 YR, Tumor Site: Type of Lesion: UNSPECIFIED: NEOPLASM active; positive | Species: MONKEY, Strain/Sex: RHESUS, Route: ORAL, Dose: 0, 3% (50-75 MG/KG) IN DIET OF CRUDE CYCAD MEAL, 5 D/WK FOR UP TO 11 YR, Tumor Site: Type of Lesion: UNSPECIFIED: NEOPLASM active; positive | Species: MOUSE, Route: SUBCUTANEOUS, Tumor Site: Type of Lesion: LIVER, LUNG active; positive | Species: RABBIT, Route: ORAL, Tumor Site: Type of Lesion: LIVER active; positive | Species: RAT, Route: ORAL, Tumor Site: Type of Lesion: INTESTINES, KIDNEY, LIVER, Tumor Site: Type of Lesion: INTESTINES, KIDNEY, LIVER active; positive | Species: RAT, Route: SUBCUTANEOUS, Tumor Site: Type of Lesion: KIDNEY, INTESTINES, LIVER, Tumor Site: Type of Lesion: KIDNEY, INTESTINES, LIVER active; positive | Species: RAT, Strain/Sex: SPRAGUE-DAWLEY/MALE,FEMALE, Route: GAVAGE, Dose: 3 ML/KG BW CYCAD EXTRACT, 1/WK FOR 12 WK, Tumor Site: Type of Lesion: INTESTINES active; positive | Species: RAT, Strain/Sex: SPRAGUE-DAWLEY/MALE,FEMALE, Route: RECTAL, Dose: 50 MG/KG BW INTO INTESTINE 1/WK FOR 12 WK, Tumor Site: Type of Lesion: INTESTINES active; positive | Species: RAT, Strain/Sex: SPRAGUE-DAWLEY/MALE, Route: GAVAGE, Dose: 80, 250 MG/KG, SINGLE DOSE, Tumor Site: Type of Lesion: INTESTINES (COLON OR RECTUM), INTESTINES (JEJUNUM OR ILEUM), DUODENUM, Tumor Site: Type of Lesion: INTESTINES (COLON OR RECTUM), INTESTINES (JEJUNUM OR ILEUM), DUODENUM active; positive | Species: RAT, Strain/Sex: SPRAGUE-DAWLEY/MALE, Route: GAVAGE, Dose: 80 MG/KG, 1/WK FOR 15 WK, Tumor Site: Type of Lesion: INTESTINES (COLON OR RECTUM), INTESTINES (JEJUNUM OR ILEUM) active; positive

CN(C)c1ccc2nc3ccc(=[N+](C)C)cc-3sc2c1
inactive: Species: Rat, Strain/Sex: F344/Female, Route: Oral, Dose: 0, 5, 25, 50 mg/kg 5 d per wk for 2 yr, Dose: 0, 5, 25, 50 mg/kg 5 d per wk for 2 yr inactive; negative
active: Species: Mouse, Strain/Sex: B6C3F1/Male, Route: Oral, Dose: 0, 2.5, 12.5, 25 mg/kg 5 d per wk for 2 yr, Dose: 0, 2.5, 12.5, 25 mg/kg 5 d per wk for 2 yr, Tumor Site: Type of Lesion: Small intestine: Carcinomas (0/50; 1/50; 2/50; 4/50), Adenomas or carcinomas (1/50; 2/50; 4/50; 6/50) (incidences not st, Tumor Site: Type of Lesion: Small intestine: Carcinomas (0/50; 1/50; 2/50; 4/50), Adenomas or carcinomas (1/50; 2/50; 4/50; 6/50) (incidences not st active; positive (for lymphoma only at high does) (ntp describes results as some evidenc | Species: Rat, Strain/Sex: F344/Male, Route: Oral, Dose: 0, 5, 25, 50 mg/kg 5 d per wk for 2 yr, Dose: 0, 5, 25, 50 mg/kg 5 d per wk for 2 yr, Tumor Site: Type of Lesion: Pancreas: Pancreatic islet adenomas (4/50; 9/50; 12/50; 8/50), Pancreatic islet adenomas or carcinomas (4/50, 9/50, 14/5, Tumor Site: Type of Lesion: Pancreas: Pancreatic islet adenomas (4/50; 9/50; 12/50; 8/50), Pancreatic islet adenomas or carcinomas (4/50, 9/50, 14/5 active; positive (statistically significant only at 25 mg/kg dose) (ntp describes as som
equivocal: Species: Mouse, Strain/Sex: B6C3F1/Female, Route: Oral, Dose: 0, 2.5, 12.5, 25 mg/kg 5 d per wk for 2 yr, Dose: 0, 2.5, 12.5, 25 mg/kg 5 d per wk for 2 yr, Tumor Site: Type of Lesion: Lymphatic system: Malignant lymphomas (6/50; 4/50; 9/50; 12/50) (Marginal increase)

O[C@@H]1[C@@H]2O[C@@H]2c2c(ccc3c2ccc2ccccc23)[C@H]1O
inactive: [1] inactive; negative | [2] inactive; negative
active: Species: MOUSE, Strain/Sex: ICR/FEMALE, Route: INTRAPERITONEAL, Dose: 0, 500 NMOL (TOTAL DOSE) ADMINISTERED IN DOSES OF 1/7, 2/7, AND 4/7 ON DAYS 1, 7, AND 15 OF LIFE, RESPECTIVELY (STUDY DU, Tumor Site: Type of Lesion: LUNG: TUMOR active; positive | Species: MOUSE, Strain/Sex: ICR/MALE, Route: INTRAPERITONEAL, Dose: 0, 500 NMOL (TOTAL DOSE) ADMINISTERED IN DOSES OF 1/7, 2/7, AND 4/7 ON DAYS 1, 7 AND 15 OF LIFE , RESPECTIVELY (STUDY DU, Tumor Site: Type of Lesion: LUNG: TUMOR active; positive

CCc1cc2ccccc2c2ccc3c(c12)[C@@H]1O[C@@H]1[C@H](O)[C@H]3O
inactive: [1] inactive; negative | [2] inactive; negative

C=C(C)[C@H]1CC=C(C)C(=O)C1
inactive: Species: MOUSE, Strain/Sex: B6C3F1/FEMALE, Route: GAVAGE, Dose: 0, 375, 750 MG/KG IN CORN OIL 5 D/WK FOR 103 WK (STUDY DURATION: 104 WK), Dose: 0, 375, 750 MG/KG IN CORN OIL 5 D/WK FOR 103 WK (STUDY DURATION: 104 WK) inactive; negative | Species: MOUSE, Strain/Sex: B6C3F1/MALE, Route: GAVAGE, Dose: 0, 375, 750 MG/KG IN CORN OIL 5 D/WK FOR 103 WK (STUDY DURATION: 104 WK), Dose: 0, 375, 750 MG/KG IN CORN OIL 5 D/WK FOR 103 WK (STUDY DURATION: 104 WK), Tumor Site: Type of Lesion: KIDNEY: TUBULAR CELL ADENOCARCINOMA inactive; negative

O=C1OCCO1
inactive: Species: RAT, Strain/Sex: STRAIN-CD/FEMALE, Route: ORAL, Dose: 25000, 50000 PPM IN DIET FOR 78 WK inactive; negative | Species: RAT, Strain/Sex: STRAIN-CD/MALE, Route: ORAL, Dose: 25000, 44360 PPM IN DIET FOR 78 WK, TWA inactive; negative
